The experiment has as its target T1, PAR4 (protease-activated receptor 4) (Homo sapiens, UniProt Q96RI0).
T1 sequence (Q96RI0 48-385): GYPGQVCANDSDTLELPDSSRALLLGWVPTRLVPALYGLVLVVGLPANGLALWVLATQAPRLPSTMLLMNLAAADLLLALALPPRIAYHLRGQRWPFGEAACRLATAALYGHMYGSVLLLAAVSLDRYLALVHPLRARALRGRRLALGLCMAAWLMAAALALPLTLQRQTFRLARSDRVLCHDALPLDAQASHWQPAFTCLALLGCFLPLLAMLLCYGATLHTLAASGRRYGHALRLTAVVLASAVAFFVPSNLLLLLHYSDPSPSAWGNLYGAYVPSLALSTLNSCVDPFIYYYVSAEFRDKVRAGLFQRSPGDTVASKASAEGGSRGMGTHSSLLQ
In words: inhibition of human platelet activation by […] gamma-thrombin. It is filed as cell-based.

Regarding VU0661245, the IC50 turned out to be 8.42 nM.

For the origin of these results see publication PMC6397092 (Platelets, 2018).
